Assay type in all cases: cell-based
Details in all cases: Oocyte

For test [1], the target named is Potassium voltage-gated channel subfamily A member 1 (Mus musculus) (UniProt P16388). The test can be described thus: Inhibition of mouse Kv1.1 channel expressed in Xenopus laevis oocytes assessed as reduction of current amplitude at 20 uM after 2 mins by two-electrode voltage clamp assay relative to control.
Test [2] shares this target. The test can be described thus: Inhibition of mouse Kv1.1 channel expressed in Xenopus laevis oocytes assessed as -50 mV current-induced channel closing time at 20 uM after 2 mins by two-electrode voltage clamp assay (reference value: 14.6 +/- 0.3 ms).
Test [3] shares this target. Kind of test: Inhibition of mouse Kv1.1 channel expressed in Xenopus laevis oocytes assessed as decrease in +60 mV current-induced time constant of activation at 20 uM after 2 mins by two-electrode voltage clamp assay relative to control. On the technique in general: In two-electrode clamp one electrode senses voltage and the other passes current.
The target is the same in test [4]. Kind of test: Inhibition of mouse Kv1.1 channel expressed in Xenopus laevis oocytes assessed as reduction of current amplitude at 15 uM after 2 mins by two-electrode voltage clamp assay relative to control.
The target is the same in test [5]. The test can be described thus: Inhibition of mouse Kv1.1 channel expressed in Xenopus laevis oocytes assessed as reduction of current amplitude at 8 uM after 2 mins by two-electrode voltage clamp assay relative to control.
Test [6] has the same target. The test can be described thus: Inhibition of mouse Kv1.1 channel expressed in Xenopus laevis oocytes assessed as -50 mV current-induced channel closing time at 15 uM after 2 mins by two-electrode voltage clamp assay (reference value: 14.6 +/- 0.3 ms).
Test [7] has the same target. Kind of test: Inhibition of mouse Kv1.1 channel expressed in Xenopus laevis oocytes assessed as -50 mV current-induced channel closing time at 8 uM after 2 mins by two-electrode voltage clamp assay (reference value: 14.6 +/- 0.3 ms).
Test [8] shares this target. The test can be described thus: Inhibition of mouse Kv1.1 channel expressed in Xenopus laevis oocytes assessed as decrease in +60 mV current-induced time constant of activation at 15 uM after 2 mins by two-electrode voltage clamp assay relative to control.
For test [9] the target is unchanged. The test can be described thus: Inhibition of mouse Kv1.1 channel expressed in Xenopus laevis oocytes assessed as decrease in +60 mV current-induced time constant of activation at 8 uM after 2 mins by two-electrode voltage clamp assay relative to control.

Potassium voltage-gated channel subfamily A member 1 (Mus musculus), sequence (P16388 whole entry): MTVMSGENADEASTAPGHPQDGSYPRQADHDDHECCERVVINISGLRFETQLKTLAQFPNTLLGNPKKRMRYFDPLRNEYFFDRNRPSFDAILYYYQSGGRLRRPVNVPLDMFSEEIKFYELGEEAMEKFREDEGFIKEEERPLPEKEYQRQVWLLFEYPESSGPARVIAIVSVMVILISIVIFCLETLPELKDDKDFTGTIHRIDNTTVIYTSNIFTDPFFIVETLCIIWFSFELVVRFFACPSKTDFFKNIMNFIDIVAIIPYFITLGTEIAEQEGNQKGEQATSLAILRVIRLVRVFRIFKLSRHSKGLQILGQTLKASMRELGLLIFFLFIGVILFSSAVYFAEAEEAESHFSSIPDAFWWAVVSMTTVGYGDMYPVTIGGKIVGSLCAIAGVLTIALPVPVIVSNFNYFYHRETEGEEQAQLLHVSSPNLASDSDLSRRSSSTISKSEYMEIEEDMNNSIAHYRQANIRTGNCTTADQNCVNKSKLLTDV

For the compound `NCCc1c(Sc2[nH]c3cc(Br)ccc3c2CCN)[nH]c2cc(Br)ccc12`, the fold change (FC) in test [1] was 0.59; in [3] it was 5. In addition, the TIME in test [2] came out at 9.28e-06 h.

A word on the inhibition: it is the relative decrease from the control value, in per cent. In the case of `NCCc1c(SSc2[nH]c3cc(Br)ccc3c2CCN)[nH]c2cc(Br)ccc12`, the fold change (FC) in test [4] was determined as 0.69; in [8], 5; in test [9], 3. Besides, the inhibition in test [5] came to 15%. Moreover, the TIME in test [6] was found to be 3.81e-06 h; in test [7], 4.94e-06 h.

As to `NCCc1c(SSSc2[nH]c3cc(Br)ccc3c2CCN)[nH]c2cc(Br)ccc12`, the inhibition in test [5] was determined as 35%. Besides, in test [7], the TIME is 4.06e-06 h. Further, in test [9], the fold change (FC) came out at 3.

Values taken from ChEMBL document CHEMBL2429722, “Synthesis of the non-peptidic snail toxin 6-bromo-2-mercaptotryptamine dimer (BrMT)(2), its lower and higher thio homologs and their ability to modulate potassium ion channels” (Bioorg Med Chem Lett, 2013).
